Measurements as given in patent US9381195B2, “Derivatives of azaindazole or diazaindazole type for treating pain” (PIERRE FABRE MEDICAMENT, priority 2012, dated 2016).

Legend:
[1] = target: T1, TrkA (Homo sapiens, UniProt P04629); assay: Test for measuring inhibition of TrkA kinase (Millipore or Kinome Scan, manufacturer's protocols); type: biochemical; details: read-out: Enzymatic inhibition at 10 nM (%) TrkA
T1 construct: purchased Millipore or Kinome Scan (DiscoverX)
Source text: (§1) Test for Measuring Inhibition of TrkA, TrkB or TrkC Kinase
(§2) These kinases are produced by Millipore or Kinome Scan (DiscoverX) and are screened according to the manufacturer's protocols.

[2] = target: T2, TrkB (Homo sapiens, UniProt Q16620); assay: Test for measuring inhibition of TrkB kinase (Millipore or Kinome Scan, manufacturer's protocols); type: biochemical; details: read-out: Enzymatic inhibition at 10 nM (%) TrkB
T2 construct: purchased Millipore or Kinome Scan (DiscoverX)
Source text: as §1, §2

[3] = target: T3, TrkC (Homo sapiens, UniProt Q16288); assay: Test for measuring inhibition of TrkC kinase (Millipore or Kinome Scan, manufacturer's protocols); type: biochemical; details: read-out: Enzymatic inhibition at 10 nM (%) TrkC
T3 construct: purchased Millipore or Kinome Scan (DiscoverX)
Source text: as §1, §2

[4] = target: T4, TrkA (or NTRK1) (Homo sapiens, UniProt P04629); assay: In vitro kinase glo plus-based kinase assay, TrkA; type: biochemical; details: comparative experiments; 30 μM ATP
T4 construct: using the soluble intracellular segment of theses receptors, containing the kinase activity; purchased Millipore
Procedure: (§3) Plates were removed from incubator, and 50 μl of kinase-glo plus was added to each well, followed by a 10 minute incubation at room temperature. The luciferase-induced luminescence, which is proportional to the ATP remaining in the well, was measured on a luminometer. Controls on each plates included wells with the kinase alone (maximal ATP consumption, or 0% inhibition), wells without the kinase (maximal ATP signal or 100% inhibition), and wells with 20 μM staurosporine (positive control of inhibition).

[5] = target: T5, TrkB (or NTRK2) (Homo sapiens, UniProt Q16620); assay: In vitro kinase glo plus-based kinase assay, TrkB; type: biochemical; details: comparative experiments; 40 μM ATP
T5 construct: using the soluble intracellular segment of theses receptors, containing the kinase activity; purchased Invitrogen
Procedure: as §3, with “An in vitro kinase glo plus-based kinase assay (Promega) was developed in a 96 wells assay plate format to assess the inhibiting properties of compounds on tropomyosin related kinases (Trk) receptors, using the soluble intracellular segment of theses receptors, containing the kinase activity (TrkA (or NTRK1; 400 ng/well; […] Invitrogen)). […] Plates” for “Plates”, “inhibition). […] N=42; […]” for “inhibition).”

[6] = test system: NGF-induced hyperalgesia; assay: In vivo analgesic activity against NGF-induced hyperalgesia (hot plate); details: mouse; for inhibition of NGF-induced hyperalgesia (latency time): given 30 min before NGF, hot plate four hours after NGF
Procedure: In Vivo Analgesic Activity Against NGF-Induced Hyperalgesia Compounds of general formula (I), and particularly compound 30 have been tested in vivo in the mouse receiving an intraplantar injection of NGF. This treatment elicits thermal hyperalgesia (Schuligoi et al., 1998, Neuroscience Letters 252:147-149). Briefly, male mice received a 10 μl subcutaneous injection of NGFβ (1 μg; SIGMA) into the plantar surface of the right hind paw. Following the injection, mice were returned to their cages. Four hours after NGF injection, mice were placed on the centre of the hot plate analgesimeter (BIO-HC2.00, Bioseb, France), and the latency time to the first brisk lift or lick of a hind paw or jumping will be recorded. A maximum cut-off time of 60 sec is used to prevent tissue damage. Results are given as the mean±s.e.m. of the latency time. Test compounds were given 30 min before NGF injection.

[7] = test system: formalin test (paw licking); assay: In vivo analgesic activity in the formalin test; set-up: species or system rat; details: rats, second phase of the formalin test, vs. vehicle-treated animals, P<0.05
Source text: In Vivo Analgesic Activity in the Formalin Test in Rats The method was adapted from Wheeler-Aceto et al. (Pain, 1990, 40:229-38) and Bardin et al. (2003, Pharmacology 67: 182-194). In the second phase of the test, Compound 30 inhibited paw licking by 44% vs. vehicle-treated animals (P<0.05 by ANOVA).

[8] = test system: inflammatory pain induced by Complete Freund Adjuvant (CFA); assay: In vivo analgesic activity against acute and chronic inflammatory pain induced by Complete Freund Adjuvant (CFA); details: rat
Source text: In Vivo Analgesic Activity Against Acute and Chronic Inflammatory Pain Induced by Complete Freund Adjuvant (CFA)
Male Sprague-Dawley rats [Crl:OFA(SD) Charles River Lyon, France] weighing 160-180 g upon arrival were used. Rats were first daily habituated to handling and to the test apparatus used for the von-Frey and hot-plate models one week before the induction of inflammation. On the following Monday, they were subjected to nociceptive tests for determination of basal scores. Then, rats will be given a 100 μl subcutaneous injection of CFA (1 mg/1 ml; Sigma) into the plantar surface of the right hind paw (day 0: D0). Saline was injected by the same route in the placebo group.
Then each rat was placed on an elevated plastic mesh in a clear plastic cage and the number of spontaneous flinches (measurement of spontaneous pain) was recorded during 10 min. Mechanical allodynia was assessed using the von Frey Hair test. Each rat was placed on an elevated plastic mesh in a clear plastic cage and allowed to adapt to the testing environment for at least 5 min. The von Frey Hairs (Semmes-Weinstein monofilaments, Stoelting Ill., USA; 0.6, 1.4, 2, 4, 6, 8, 10, and 15 g) was applied to the plantar surface of the injected paw from below the mesh floor for […] in the ascending order. The threshold was determined as the lowest force that evoked a withdrawal response. The test was repeated three times with an interval of 5 min between each test. The paw withdrawal score to the tactile stimulus was determined as the average of the 3 measurements. Animals received intraperitoneal or oral injections of test compounds. […] Compound completely or nearly completely reversed spontaneous pain from 0.16 mg/kg and mechanical allodynia from 2.5 mg/kg.

[9] = test system: bone cancer pain; assay: In vivo analgesic activity against chronic pain in a model of bone cancer pain (NCTC 2472 fibrosarcoma cells in tibia); set-up: species or system mouse; details: C3H/HeNCrl mice
Procedure: In Vivo Analgesic Activity Against Chronic Pain in a Model of Bone Cancer Pain
Bone cancer produces one of the most painful conditions that affect humans and animals. […] Several models of murine osteosarcoma-induced pain have been developed (Pacharinsak and Beitz, Animal models of cancer pain. Comp Med. 2008 June; 58:220-33.).
We induced bone cancer pain by implanting 10 μl of PBS containing 2×10^5 NCTC 2472 osteolytic fibrosarcoma cells into the tibia of 5-6 week-old C3H/HeNCrl mice under isoflurane anesthesia. The presence of these cells induces osteolytic lesions in bone due to both an increase in the number of osteoclasts and to their activation, which leads to the destruction of bone tissue and the invasion of the adjacent soft tissue and pain related behaviours. Pain-related behaviours were evaluated both prior to and at 3, 7, 10, 14 and 17 days following tumor cell injection. The following behaviors were evaluated: • Limb use during spontaneous ambulation on a scale of 0-4 where 0=normal use and 4=no use of the injected hind paw; • Light touch-evoked pain. Light touch induced flinching were measured after the 1 min period of non noxious stimulation of the tumor injected paw with a small paint brush. The numbers of flinches were recorded over 5 min. […]

T5 sequence (Q16620 455-822 limits assumed): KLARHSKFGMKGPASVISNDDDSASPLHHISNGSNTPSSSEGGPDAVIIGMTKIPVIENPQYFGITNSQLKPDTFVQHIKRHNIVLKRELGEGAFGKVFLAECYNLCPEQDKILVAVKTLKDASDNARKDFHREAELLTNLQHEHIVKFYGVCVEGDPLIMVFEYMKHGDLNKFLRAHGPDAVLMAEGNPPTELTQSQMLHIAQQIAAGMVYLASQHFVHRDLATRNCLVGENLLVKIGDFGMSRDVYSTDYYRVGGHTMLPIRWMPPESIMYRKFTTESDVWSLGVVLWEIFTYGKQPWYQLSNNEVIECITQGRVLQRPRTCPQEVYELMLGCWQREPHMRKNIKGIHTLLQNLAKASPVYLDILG
T2 sequence (Q16620 32-822): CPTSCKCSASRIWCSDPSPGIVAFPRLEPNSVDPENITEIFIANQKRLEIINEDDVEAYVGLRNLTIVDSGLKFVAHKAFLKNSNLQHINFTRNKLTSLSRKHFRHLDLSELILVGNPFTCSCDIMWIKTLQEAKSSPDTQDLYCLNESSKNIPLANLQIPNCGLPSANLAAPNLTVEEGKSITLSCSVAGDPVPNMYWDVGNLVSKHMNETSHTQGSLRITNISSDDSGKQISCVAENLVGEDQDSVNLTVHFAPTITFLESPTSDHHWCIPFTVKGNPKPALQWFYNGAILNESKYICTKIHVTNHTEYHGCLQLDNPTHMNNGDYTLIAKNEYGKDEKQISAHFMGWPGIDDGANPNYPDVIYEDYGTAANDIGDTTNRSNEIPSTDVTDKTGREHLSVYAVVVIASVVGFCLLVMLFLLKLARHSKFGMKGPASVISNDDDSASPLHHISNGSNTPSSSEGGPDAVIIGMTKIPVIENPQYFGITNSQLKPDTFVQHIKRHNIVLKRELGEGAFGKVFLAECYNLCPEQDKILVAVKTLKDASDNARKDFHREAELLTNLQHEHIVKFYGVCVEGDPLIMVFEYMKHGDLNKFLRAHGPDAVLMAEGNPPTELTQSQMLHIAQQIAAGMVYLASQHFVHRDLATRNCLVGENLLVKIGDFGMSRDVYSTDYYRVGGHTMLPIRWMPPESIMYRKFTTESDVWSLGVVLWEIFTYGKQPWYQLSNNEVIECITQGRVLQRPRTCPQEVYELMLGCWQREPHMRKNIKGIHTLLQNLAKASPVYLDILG
T1 sequence (P04629 33-796): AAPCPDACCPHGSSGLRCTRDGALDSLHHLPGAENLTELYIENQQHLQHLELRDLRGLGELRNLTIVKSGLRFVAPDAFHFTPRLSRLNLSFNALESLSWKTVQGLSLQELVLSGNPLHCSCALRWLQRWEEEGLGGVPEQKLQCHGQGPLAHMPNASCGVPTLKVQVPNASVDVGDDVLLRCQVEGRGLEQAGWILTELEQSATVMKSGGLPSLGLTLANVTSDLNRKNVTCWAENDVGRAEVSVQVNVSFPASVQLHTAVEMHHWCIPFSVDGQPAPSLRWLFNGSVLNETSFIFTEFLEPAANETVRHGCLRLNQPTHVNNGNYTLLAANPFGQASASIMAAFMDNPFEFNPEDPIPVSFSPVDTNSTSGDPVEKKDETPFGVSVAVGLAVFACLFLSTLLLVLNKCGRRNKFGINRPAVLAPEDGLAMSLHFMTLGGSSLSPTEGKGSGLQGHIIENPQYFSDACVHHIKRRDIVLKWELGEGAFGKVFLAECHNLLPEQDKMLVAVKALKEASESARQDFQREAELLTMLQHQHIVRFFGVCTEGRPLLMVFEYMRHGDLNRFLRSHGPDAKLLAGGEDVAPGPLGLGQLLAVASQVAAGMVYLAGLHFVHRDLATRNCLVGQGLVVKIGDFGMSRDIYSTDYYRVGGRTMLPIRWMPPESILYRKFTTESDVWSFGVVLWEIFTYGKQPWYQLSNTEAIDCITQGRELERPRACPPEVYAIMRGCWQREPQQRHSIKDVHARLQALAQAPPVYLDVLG
T3 sequence (Q16288 32-839): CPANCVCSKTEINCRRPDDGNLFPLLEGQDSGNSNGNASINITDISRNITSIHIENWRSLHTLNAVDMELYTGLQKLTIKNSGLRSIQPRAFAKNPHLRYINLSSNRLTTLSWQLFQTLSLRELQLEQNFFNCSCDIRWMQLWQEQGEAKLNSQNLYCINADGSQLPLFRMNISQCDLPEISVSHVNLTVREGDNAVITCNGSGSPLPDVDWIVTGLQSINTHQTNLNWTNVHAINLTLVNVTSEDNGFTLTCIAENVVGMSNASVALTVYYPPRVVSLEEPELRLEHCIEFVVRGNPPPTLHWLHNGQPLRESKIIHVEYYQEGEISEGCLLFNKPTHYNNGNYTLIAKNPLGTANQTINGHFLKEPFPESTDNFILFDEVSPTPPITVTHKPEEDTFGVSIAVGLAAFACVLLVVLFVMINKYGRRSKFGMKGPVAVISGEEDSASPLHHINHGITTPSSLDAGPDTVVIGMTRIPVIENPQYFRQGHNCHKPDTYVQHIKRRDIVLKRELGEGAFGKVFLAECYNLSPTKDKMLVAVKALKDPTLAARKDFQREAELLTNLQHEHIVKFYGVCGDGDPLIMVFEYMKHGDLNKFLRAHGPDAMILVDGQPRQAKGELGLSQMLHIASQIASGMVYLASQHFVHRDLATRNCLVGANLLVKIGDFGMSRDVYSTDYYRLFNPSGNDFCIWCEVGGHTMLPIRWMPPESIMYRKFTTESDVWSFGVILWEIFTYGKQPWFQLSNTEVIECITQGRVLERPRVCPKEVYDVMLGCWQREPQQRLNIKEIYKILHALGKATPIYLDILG
T4 sequence (P04629 440-796 limits assumed): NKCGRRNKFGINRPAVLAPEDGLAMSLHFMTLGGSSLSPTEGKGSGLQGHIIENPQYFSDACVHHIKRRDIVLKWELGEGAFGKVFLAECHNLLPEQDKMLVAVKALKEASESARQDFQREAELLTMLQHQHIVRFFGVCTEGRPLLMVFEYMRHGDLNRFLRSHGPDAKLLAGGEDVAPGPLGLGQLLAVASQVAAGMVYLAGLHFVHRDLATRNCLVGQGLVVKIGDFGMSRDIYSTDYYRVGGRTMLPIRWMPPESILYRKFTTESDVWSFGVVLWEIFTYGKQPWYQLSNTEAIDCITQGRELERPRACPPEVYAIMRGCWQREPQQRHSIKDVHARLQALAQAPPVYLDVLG

| Structure (SMILES) | inhibition at 0.01 µM [1] | inhibition at 0.01 µM [2] | inhibition at 0.01 µM [3] | IC50 [4] | IC50 [5] | other results |
| --- | --- | --- | --- | --- | --- | --- |
| Nc1n[nH]c2ncc(Sc3cc(F)cc(F)c3)cc12 [D] | – | – | – | 22 µM | 35 µM | – |
| CN1CCN(c2ccc(C(=O)Nc3n[nH]c4nc(Nc5ccc(F)cc5F)ccc34)c(NC3CCOCC3)c2)CC1 [C] | – | – | – | 2.1 µM | 5.8 µM | – |
| CN1CCN(c2ccc(C(=O)Nc3n[nH]c4nc(Nc5cc(F)cc(F)c5)ncc34)c(NC3CCOCC3)c2)CC1 [A] | – | – | – | ~10 µM | > 100 µM | – |
| CN1CCN(c2ccc(C(=O)Nc3n[nH]c4ncc(Sc5cc(F)cc(F)c5)cc34)c(NC3CCOCC3)c2)CC1 [Compound 30, N-(5-(3,5-difluorophenylthio)-1-H-pyrazolo[3,4-b]pyridine-3-yl)-4-(4-methylpiperazine-1-yl)-2-(tetrahydro-2H-pyran-4-ylamino)benzamide] | 93.8% | 84% | 64% | 0.045 µM | 0.031 µM | doses at which complete or nearly complete reversion of NGF-induced hyperalgesia occurred ([6]; intraperitoneal or oral route, P<0.05 vs NGF alone): ≤ 10 mg/kg; inhibition of NGF-induced hyperalgesia (latency time) ([6]; intraperitoneal route, FIG. 1A): dose-dependently inhibited; inhibition of NGF-induced hyperalgesia (latency time) ([6]; oral route, FIG. 1B): dose-dependently inhibited; inhibition of paw licking [7]: 44%; dose from which spontaneous pain was completely or nearly completely reversed ([8]; flinches): ≥ 0.16 mg/kg; inhibition of spontaneous flinches (acute inflammatory pain) ([8]; intraperitoneal injection, FIG. 2A): dose-dependently inhibited; inhibition of mechanical allodynia (von Frey) ([8]; oral administration, FIG. 2B): dose-dependently inhibited; dose from which mechanical allodynia was completely or nearly completely reversed ([8]; von Frey): ≥ 2.5 mg/kg; light touch-evoked flinching ([9]; 2.5 mg/kg i.p. chronically from day 7, effect from day 8, FIG. 3B): significantly reduced; limb use score ([9]; 2.5 mg/kg i.p. chronically from day 7, effect from day 10, FIG. 3A): significantly reduced |
| CN1CCN(c2ccc(C(=O)Nc3n[nH]c4nc(Nc5ccc(F)cc5F)ncc34)c(NC3CCOCC3)c2)CC1 [B] | – | – | – | 3.3 µM | 18 µM | – |

The next lines start with results.

| inhibition at 0.01 µM [1] | inhibition at 0.01 µM [2] | inhibition at 0.01 µM [3] | IC50 [4] | IC50 [5] | Structure (SMILES) | other results |
| --- | --- | --- | --- | --- | --- | --- |
| 99% | 96.6% | 97.3% | – | – | CN1CCN(c2ccc(C(=O)Nc3n[nH]c4ncc(S(=O)(=O)Nc5cc(F)cc(F)c5)cc34)c(NC3CCOCC3)c2)CC1 [Compound 30-8, N-(5-(N-(3,5-difluorophenyl)sulfamoyl)-1H-pyrazolo[3,4-b]pyridin-3-yl)-4-(4-methylpiperazin-1-yl)-2-(tetrahydro-2H-pyran-4-ylamino)benzamide] | – |
| 97.8% | 93% | 96.8% | – | – | CN1CCN(c2ccc(C(=O)Nc3n[nH]c4ncc(S(=O)(=O)c5cc(F)cc(F)c5)cc34)c(NC3CCOCC3)c2)CC1 [Compound 27-1, N-(5-(3,5-difluorophenylsulfonyl)-1H-pyrazolo[3,4-b]pyridin-3-yl)-4-(4-methylpiperazin-1-yl)-2-(tetrahydro-2H-pyran-4-ylamino)benzamide] | – |
| 55% | 98% | – | – | – | CN1CCN(c2ccc(C(=O)Nc3n[nH]c4ncc(Cc5cc(F)cc(F)c5)cc34)c(NC3CCOCC3)c2)CC1 [Compound 30-9, N-(5-(3,5-difluorobenzyl)-1H-pyrazolo[3,4-b]pyridin-3-yl)-4-(4-methylpiperazin-1-yl)-2-(tetrahydro-2H-pyran-4-ylamino)benzamide] | – |
| 97.4% | 88% | 93.4% | – | – | CN1CCN(c2ccc(C(=O)Nc3n[nH]c4nc(N)c(Sc5cc(F)cc(F)c5)cc34)c(NC3CCOCC3)c2)CC1 [Compound 14-11, N-(6-amino-5-(3,5-difluorophenylthio)-1H-pyrazolo[3,4-b]pyridin-3-yl)-4-(4-methylpiperazin-1-yl)-2-(tetrahydro-2H-pyran-4-ylamino)benzamide] | – |
